Reference: US9447083B2, “N-acylhydrazone derivatives for selective T cell inhibitor and anti-lymphoid malignancy drug” (CHONG KUN DANG PHARMACEUTICAL CORP., priority 2012, dated 2016)

Test system: Experimental Autoimmune Encephalomyelitis (EAE)
Assay: Experimental Autoimmune Encephalomyelitis (EAE) model of multiple sclerosis
Format: in vivo, mouse
Protocol: At the first day of induction, myelin oligodendrocyte glycoprotein35-55 (MOG35-55, Peptron) (200 ug), mycobacterium tuberculosis (Difco, Cat No. 231141) (500 μg) and complete Freund's adjuvant (Sigma Aldrich, Cat No. F5506) were mixed with each other and immersed for 5 minutes. 0.1 mL of the immersed peptide was injected subcutaneously into both the flanks of each of C57BL/6 mice (9 week old, female, 18±2 g), followed by that […] pertussis toxin (Sigma Aldrich, Cat No. P2980) (200 ng) was injected by intravenously. At 2 days, the same amount of pertussis toxin was administered intravenously. Whether the immersion leaked from the injected portion of the mice was checked, and whether EAE was induced was also examined by visual observation from 7 days.
Compound 229 and Fingolimod that is currently clinically used for the treatment of multiple sclerosis were completely dissolved in a Cremophor EL-ethanol mixture (1:1, v/v) in an amount corresponding to 7.5% (v/v) of the administration volume, and the compound solution was diluted in PBS. The two groups of the mice were administered orally with 200 μL of the diluted solution of compound 229 at each doses of 25 and 50 mg/kg separately, and the third group of the mice was administered orally with 200 μL of the diluted solution of fingolimode at a dose of 1 mg/kg on a daily basis from 17 days to 37 days (for total 21 times) after starting of the experiment. In a vehicle control group, 200 μL of a Cremophor EL-ethanol-PBS mixture (3.75:3.75:92.5, v/v/v) was administered to each mouse in the same manner as the treated group. The index of EAE was recorded daily based on visual observation using a severity index system (6-point (0 to 5) scale) from 7 days of the experiment. The symptoms of multiple sclerosis were evaluated based on the following criteria:
2: limp tail and hind limb weakness;
4: hind limb paralysis and forelimb weakness; and […]

In the case of `Cc1cc(C)c(OCC(=O)N/N=C/c2ccc3cc[nH]c3c2)c(C2CCOC2)c1` (stereo not shown) [Compound 229, (E)-N′-((1H-indol-6-yl)methylene)-2-(2,4-dimethyl-6-(tetrahydrofuran-3-yl)phenoxy)acetohydrazide], the “severity index (EAE, 0 to 5 scale)” value (25 mg/kg orally daily from 17 to 37 days, at 17 days (start of administration)) is reported as 3±1, the “severity index (EAE, 0 to 5 scale)” value (25 mg/kg orally daily from 17 to 37 days, at 39 days, vehicle 2.5±0.75) is reported as 1.25±0.75 and the “severity index (EAE, 0 to 5 scale)” value (25 mg/kg orally daily from 17 to 37 days, at 55 days) is reported as 1.17±0.75. The “severity index (EAE, 0 to 5 scale)” value (25 mg/kg orally daily from 17 to 37 days, at 101 days, vehicle 2.33±0.25) was 1.83±0.5, the “severity index (EAE, 0 to 5 scale)” value (50 mg/kg orally daily from 17 to 37 days, at 17 days (start of administration)) was 3±0.75 and the “severity index (EAE, 0 to 5 scale)” value (50 mg/kg orally daily from 17 to 37 days, at 39 days, vehicle 2.5±0.75) was 0.9±0.25. For the same molecule, the “severity index (EAE, 0 to 5 scale)” value (50 mg/kg orally daily from 17 to 37 days, at 101 days, vehicle 2.33±0.25) was 0.63±0.25.
